Data on 1 compound can be found in patent publication US11542240B2, “STK19 inhibitors for treatment of cancer” (TRUSTEES OF BOSTON UNIVERSITY, priority 2018, dated 2023).

Data set [1] has as its target panel of 468 diverse kinases (Homo sapiens, UniProt O14976). As to the kind of experiment: biochemical. Particulars: GAK; 1000 nM; read-out: Percent Control. The data set is classed as binding.
Data set [2] addresses panel of 468 diverse kinases (Homo sapiens, UniProt P00533, G719C). In words: biochemical. The data set is classed as binding. Particulars: EGFR(G719C); 1000 nM; read-out: Percent Control.
For data set [3], the target named is panel of 468 diverse kinases (Homo sapiens, UniProt P19525). As to the kind of experiment: biochemical. The data set is classed as binding. Conditions: PRKR; 1000 nM; read-out: Percent Control.
For data set [4], the target named is panel of 468 diverse kinases (Homo sapiens, UniProt P23458). As to the kind of experiment: biochemical. Format: binding. Particulars: 1000 nM, read-out: Percent Control.
Data set [5] concerns the target panel of 468 diverse kinases (Homo sapiens, UniProt P49336). In words: biochemical. Format: binding. Conditions: CDK8; 1000 nM; read-out: Percent Control.
Data set [6] addresses panel of 468 diverse kinases (Homo sapiens, UniProt Q6DT37). In words: biochemical. Format: binding. Particulars: DMPK2; 1000 nM; read-out: Percent Control.
For data set [7], the target named is panel of 468 diverse kinases (Homo sapiens, UniProt Q9H422). As to the kind of experiment: biochemical. Conditions: HIPK3; 1000 nM; read-out: Percent Control. The data set is classed as binding.
For data set [8], the system named is hTERT/p53DD/CDK4(R24C) melanocytes. As to the kind of experiment: colony formation assay of NRASQ61R-expressing immortal melanocytes. The data set is classed as cell-based, human. Conditions: 3 μM IV.
For a further data set, the system named is UACC62 cells. In words: caspase activity assay (apoptosis), 4 days. Format: cell-based, human. Conditions: UACC62, 4 days.
Another data set has as its system A375 cells. In words: immunoblots of NRAS phosphorylation and NRAS signaling. Format: cell-based, human. Conditions: A375 (NRASWT, BRAFV600E).
The target in a further data set is STK19D89N (Homo sapiens (Human), UniProt P49842, D89N). As to the kind of experiment: STK19 kinase assay, D89N mutant. Particulars: read-out: IC50 for STK19D89N.
Data set [9] in a line: tolerability study in C57BL/6J mice (body weight, blood chemistry, H&E histology).
Experimental: (§1) Data are means±SD (n=3). […] ATP Km (app) was calculated by fitting the data with Michaelis-Menten equation. Data are means±SD (n=3). […] Data are means±SD relative to control group (n=3). […] Data are means±SD relative to control group (n=3). […] Data are means±SD relative to control groups (n=3). Body weight measurements of C57BL/6J mice treated with 0 or 25 mg/kg IV (BID) for 15 days. Data are means±SEM relative to control groups (n=8). H&E staining of tissues in C57BL/6J mice treated with 0 or 25 mg/kg IV (BID) for 15 days. Scale bar, 250 m.
[10] abbreviates: blood chemistry in tolerability studies.

The structures appear in SMILES notation. pIC50: −log10 of the molar value. Read-outs that look alike come from different tables or passages of the source.

Chain of panel of 468 diverse kinases (Homo sapiens, UniProt O14976) (O14976 2-1311 limits assumed): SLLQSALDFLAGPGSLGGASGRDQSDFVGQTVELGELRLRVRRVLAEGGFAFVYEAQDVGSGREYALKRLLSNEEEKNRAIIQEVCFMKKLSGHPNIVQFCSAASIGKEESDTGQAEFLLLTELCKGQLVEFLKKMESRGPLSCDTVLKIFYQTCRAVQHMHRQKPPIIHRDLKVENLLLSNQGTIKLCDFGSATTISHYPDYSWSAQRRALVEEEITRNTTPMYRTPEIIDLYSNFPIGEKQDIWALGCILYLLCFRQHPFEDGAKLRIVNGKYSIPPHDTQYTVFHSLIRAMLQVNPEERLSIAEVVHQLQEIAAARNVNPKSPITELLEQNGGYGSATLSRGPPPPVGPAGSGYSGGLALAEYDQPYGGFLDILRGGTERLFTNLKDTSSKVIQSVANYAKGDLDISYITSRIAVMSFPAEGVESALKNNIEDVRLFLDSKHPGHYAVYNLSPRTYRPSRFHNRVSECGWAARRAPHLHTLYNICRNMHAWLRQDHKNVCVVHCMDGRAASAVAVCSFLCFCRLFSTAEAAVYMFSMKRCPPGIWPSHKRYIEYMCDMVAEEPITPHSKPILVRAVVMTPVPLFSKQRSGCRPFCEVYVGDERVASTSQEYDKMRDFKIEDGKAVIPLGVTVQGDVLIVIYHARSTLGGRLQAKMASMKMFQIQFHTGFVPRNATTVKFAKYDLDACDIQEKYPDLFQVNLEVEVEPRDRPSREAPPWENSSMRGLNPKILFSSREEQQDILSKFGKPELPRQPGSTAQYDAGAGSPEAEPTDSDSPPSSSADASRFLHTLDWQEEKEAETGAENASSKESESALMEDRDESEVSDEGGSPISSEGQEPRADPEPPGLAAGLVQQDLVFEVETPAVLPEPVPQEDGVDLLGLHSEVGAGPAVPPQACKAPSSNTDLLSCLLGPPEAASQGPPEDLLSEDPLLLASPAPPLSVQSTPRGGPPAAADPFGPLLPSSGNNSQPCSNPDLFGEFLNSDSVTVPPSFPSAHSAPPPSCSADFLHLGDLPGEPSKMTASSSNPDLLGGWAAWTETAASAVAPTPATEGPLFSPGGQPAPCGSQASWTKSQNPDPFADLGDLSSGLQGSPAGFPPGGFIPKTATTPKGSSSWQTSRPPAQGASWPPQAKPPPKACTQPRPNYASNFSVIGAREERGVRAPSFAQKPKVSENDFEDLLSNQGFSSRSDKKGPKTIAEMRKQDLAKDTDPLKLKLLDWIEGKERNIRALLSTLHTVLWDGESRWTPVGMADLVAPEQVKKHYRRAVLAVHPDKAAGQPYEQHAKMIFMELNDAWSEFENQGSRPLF
Chain of panel of 468 diverse kinases (Homo sapiens, UniProt P19525) (P19525 2-551 limits assumed): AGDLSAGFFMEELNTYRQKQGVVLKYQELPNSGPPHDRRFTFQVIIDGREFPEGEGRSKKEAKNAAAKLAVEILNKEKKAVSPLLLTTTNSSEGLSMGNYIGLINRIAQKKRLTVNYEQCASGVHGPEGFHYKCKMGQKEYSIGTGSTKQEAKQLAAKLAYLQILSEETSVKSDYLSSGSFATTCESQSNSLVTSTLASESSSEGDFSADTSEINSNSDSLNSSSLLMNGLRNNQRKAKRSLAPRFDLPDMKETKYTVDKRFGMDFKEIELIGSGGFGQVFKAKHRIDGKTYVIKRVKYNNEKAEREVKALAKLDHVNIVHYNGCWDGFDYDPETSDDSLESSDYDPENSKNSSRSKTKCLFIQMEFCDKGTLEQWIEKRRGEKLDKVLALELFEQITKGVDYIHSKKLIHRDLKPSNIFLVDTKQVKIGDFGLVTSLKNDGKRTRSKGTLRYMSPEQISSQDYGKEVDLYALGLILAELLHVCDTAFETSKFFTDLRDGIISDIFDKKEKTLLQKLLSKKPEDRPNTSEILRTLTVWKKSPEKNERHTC
Chain of panel of 468 diverse kinases (Homo sapiens, UniProt P00533, G719C) (P00533 25-1210 G719C limits assumed): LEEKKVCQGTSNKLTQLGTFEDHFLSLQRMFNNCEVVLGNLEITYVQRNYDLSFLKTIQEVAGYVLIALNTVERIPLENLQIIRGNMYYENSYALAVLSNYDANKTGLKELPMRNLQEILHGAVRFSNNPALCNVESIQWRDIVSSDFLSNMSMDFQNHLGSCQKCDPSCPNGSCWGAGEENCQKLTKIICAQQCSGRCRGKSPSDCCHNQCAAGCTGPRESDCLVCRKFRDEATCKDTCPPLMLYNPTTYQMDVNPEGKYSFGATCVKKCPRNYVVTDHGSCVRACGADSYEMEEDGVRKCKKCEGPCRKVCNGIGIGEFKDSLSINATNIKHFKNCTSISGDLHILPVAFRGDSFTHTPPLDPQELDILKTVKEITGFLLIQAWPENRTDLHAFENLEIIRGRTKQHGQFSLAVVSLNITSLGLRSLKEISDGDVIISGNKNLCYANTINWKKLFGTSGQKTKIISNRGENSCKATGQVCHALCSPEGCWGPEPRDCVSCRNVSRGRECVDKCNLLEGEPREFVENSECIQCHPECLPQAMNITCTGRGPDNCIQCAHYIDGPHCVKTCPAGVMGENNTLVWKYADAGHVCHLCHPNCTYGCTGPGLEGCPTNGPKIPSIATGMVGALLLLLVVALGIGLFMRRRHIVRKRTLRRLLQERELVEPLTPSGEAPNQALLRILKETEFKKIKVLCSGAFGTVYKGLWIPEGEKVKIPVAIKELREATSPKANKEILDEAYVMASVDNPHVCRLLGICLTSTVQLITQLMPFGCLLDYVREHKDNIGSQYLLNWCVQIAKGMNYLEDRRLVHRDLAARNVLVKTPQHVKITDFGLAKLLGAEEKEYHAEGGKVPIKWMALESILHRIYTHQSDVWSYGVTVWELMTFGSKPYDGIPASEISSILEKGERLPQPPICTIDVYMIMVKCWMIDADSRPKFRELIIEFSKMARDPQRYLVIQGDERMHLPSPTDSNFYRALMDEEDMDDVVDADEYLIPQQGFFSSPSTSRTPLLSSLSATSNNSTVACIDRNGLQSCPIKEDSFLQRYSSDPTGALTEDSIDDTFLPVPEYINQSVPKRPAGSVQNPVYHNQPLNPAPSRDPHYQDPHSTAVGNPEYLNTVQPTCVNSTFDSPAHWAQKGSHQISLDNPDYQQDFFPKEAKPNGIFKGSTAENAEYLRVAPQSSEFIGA
Chain of STK19D89N (P49842 other isoform, or with tags, fused parts or gaps D89N): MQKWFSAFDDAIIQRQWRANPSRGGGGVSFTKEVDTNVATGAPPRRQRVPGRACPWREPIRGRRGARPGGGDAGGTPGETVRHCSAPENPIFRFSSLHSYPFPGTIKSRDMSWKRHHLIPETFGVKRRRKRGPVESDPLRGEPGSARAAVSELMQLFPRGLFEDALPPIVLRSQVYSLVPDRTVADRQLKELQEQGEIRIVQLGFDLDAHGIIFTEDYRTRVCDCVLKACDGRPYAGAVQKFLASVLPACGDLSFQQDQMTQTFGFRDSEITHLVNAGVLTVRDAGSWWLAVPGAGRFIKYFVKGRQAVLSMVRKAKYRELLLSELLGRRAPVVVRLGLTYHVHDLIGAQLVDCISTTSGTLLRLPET
Experimental for STK19D89N: as §1

As a reminder, the pIC50 is the negative decadic logarithm of the IC50, by convention in mol/L. Regarding `COc1cc2nc(NC3CC3)nc(NC3CCN(C(C)C)CC3)c2cc1OC` [Formula IV], in data set [1], the remaining activity at 1 µM worked out at 92%. The remaining activity at 1 µM in [2] came to 91%. For the same compound, in data set [3], the remaining activity at 1 µM was 99%. The remaining activity at 1 µM in data set [4] (JAK1(JH1domain-catalytic)) came out at 96%. The remaining activity at 1 µM in data set [4] (JAK1(JH2domain-pseudokinase)) was determined as 51%. Besides, the remaining activity at 1 µM in data set [5] worked out at 96%. Also, in data set [6], the remaining activity at 1 µM came to 99%. In addition, the remaining activity at 1 µM in data set [7] came out at 61%. In addition, the “mutant NRAS/STK19-driven melanocyte colony formation” value in [8] is on record as “significantly inhibited”. For the same compound, the apoptosis result in the data set with UACC62 cells is reported as “reduced impact”. In addition, in the data set on A375 cells, the “NRAS signaling, including MEK-ERK and PI3K pathways” value is “much less effective”. Also, the pIC50 on STK19D89N is 7.55. Besides, the serum transaminase levels result in data set [9] (C57BL/6J mice) is “did not affect”. In [9] (C57BL/6J mice, 25 mg/kg BID for 15 days), the mouse weight entry is recorded as “did not affect”. In addition, the “histology of mouse tissues” value in [9] (C57BL/6J mice, 25 mg/kg BID for 15 days, H&E) is “did not affect”. In data set [9] (setting [10]), the “Alanine aminotransferase (ALT)” value is 27.6 ± 5.6 U/L, the “Albumin (ALB)” value is listed as 28.3 ± 2.7 g/L, the “Alkaline phosphatase (ALP)” value was 3.9 ± 1.7 U/L and the “Aspartate aminotransferase (AST)” value is listed as 54.4 ± 9.4 U/L. For the same compound, in data set [9] (setting [10]), the “Creatinine (CRE)” value turned out to be 17.7 ± 4.2 µmol/L, the “Lactic dehydrogenase (LDH)” value came out at 247.3 ± 41.0 U/L, the “Phosphorus (P)” value was 1.67 ± 0.39 and the “Total bilirubin (T-Bil)” value stood at 2.68 ± 0.44 µmol/L. Moreover, in data set [9] (setting [10]), the “Total protein (TP)” value worked out at 50.9 ± 2.5 g/L.
